Experimental data taken from US20120183660A1, “ISOMANNIDE DERIVATIVES AND THEIR USE AS TASTANTS” (Senomyx, Inc., priority 2009, published 2012).

System: un-induced I-17 cells
Experiment: FLIPR assay on un-induced I-17 cells (no mifepristone induction of receptor expression)
Type: cell-based
Details: compounds at 10 μM—or three times the maximum stimulation used in the dose-response analysis
Procedure: In order to determine the dependency of hT1R1/hT1R3 for the cell response to different stimuli, selected compounds were subjected to a similar analysis on I-17 cells that had not been induced for receptor expression with mifepristone (designated as un-induced I-17 cells). […] Compounds were presented to un-induced umami cells at […]—or three times the maximum stimulation used in the dose-response analysis.

N[C@@H](CCC(=O)O)C(=O)[O-].[Na+] [monosodium glutamate]
functional response in the FLIPR assay on un-induced umami cells: do not show any functional response
